Measurements taken from patent publication US20250249010A1, “METHODS FOR TREATING PRIMARY MEMBRANOUS NEPHROPATHY” (BEIGENE SWITZERLAND GMBH, priority 2022, published 2025).

Key:
[1] = test system: patients with B-cell malignancies; settings: 320 mg per day (160 mg twice a day); cited from earlier work
CYP3A4 = experiment: Clinical drug-drug interaction study (Study BGB-3111-108), CYP3A4; format: in vivo; settings: clinical drug-drug interaction study BGB-3111-108
CYP2C19 = experiment: Clinical drug-drug interaction study (Study BGB-3111-108), CYP2C19; format: in vivo; settings: clinical drug-drug interaction study BGB-3111-108

CYP3A4 induction (CYP3A4): mild inducer
CYP2C19 induction (CYP2C19): mild inducer
Structure (SMILES): C=CC(=O)N1CCC([C@@H]2CCNc3c(C(N)=O)c(-c4ccc(Oc5ccccc5)cc4)nn32)CC1 [zanubrutinib, (S)-7-(1-acryloylpiperidin-4-yl)-2-(4-phenoxyphenyl)-4,5,6,7-tetrahydropyrazolo[1,5-a]pyrimidine-3-carboxamide]
efficacy in patients with B-cell malignancies [1]: efficacious
tolerability in patients with B-cell malignancies [1]: well tolerated
